From ChEMBL document CHEMBL5604062, “ASAP - ZIKV NS2B-NS3 protease fluorescence dose response” (2024)
pIC50: −log10 of the molar value. Several values for one entry are separate records, joined by “and”; a condition that tells them apart may be missing. Identical values can stand only once.

molecular target: Nonstructural protein 3 (Zika virus, UniProt A0A024AXB9); experiment: Functional biochemical assay to identify treatments for viral infectious disease that targets Zika NS2B-NS3 protease. Utilizing a direct enzyme activity measurement method, reading the fluorescence intensity is used to characterize the relative potency of inhibitors as IC50.; design: species or system PRVABC59
Sequence (A0A024AXB9 whole entry): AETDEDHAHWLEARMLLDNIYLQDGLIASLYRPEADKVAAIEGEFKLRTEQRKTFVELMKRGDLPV

SMILES	pIC50
CC(C)NC(=O)[C@H](Nc1ccc2c(c1)CNC2)c1cc(Cl)cc2[nH]c(-c3ccccc3)nc12	7.38 and 7.72 and 7.27 and 7.48 and 7.80 and 7.16
Cc1c(C(=O)Nc2cc(C3(C)OCCO3)ccn2)cc(C2CC2)n1C	< 4.60
O=C1OCc2ccc(NC(=O)[C@H]3CCNC34CCCC4)cc21	< 4.60
Cc1ncc(-c2cc(F)cc(C(=O)Nc3ccc4c(c3)CNC4)c2)o1	6.82
O=C(Nc1cc2c(cc1Br)CNC2)c1cc(Cl)cc2[nH]ncc12	7.29 and 7.47
O=C(Nc1cc(-c2cccnc2)ccn1)c1cc2n(n1)CCO2	< 4.60
Cc1c(C(=O)Nc2cccc([C@H]3CCOC3)c2)cc(C2CC2)n1C	< 4.60
O=C(Nc1cc(-c2cccnc2)ccn1)c1csc(C[C@H]2CCNC2)n1	< 4.60
O=C(Nc1cc(-c2cccnc2)ccn1)c1nc(C2CC2)co1	< 4.60
O=C(Nc1cc(-c2cccnc2)ccn1)c1cc2n(n1)CCC2	< 4.60
CNC(=O)[C@H](Nc1cc(Cl)cc2[nH]ncc12)c1ccc2c(c1)CNC2	5.40
Cn1cc(C(F)(F)F)nc1C(=O)Nc1cc(-c2cccnc2)ccn1	< 4.60
Cc1c(C(=O)Nc2cc(-c3cccnc3)ccn2)cc(C2CCCC2)n1C	< 4.60
C=CC[C@H]1NCc2cc(N[C@H](C(=O)NC(C)C)c3cccc4[nH]ncc34)ccc21	< 4.60
COCCNC(=O)[C@H](Nc1cccc([C@H]2CCOC2)c1)c1cc(Cl)cc2[nH]ncc12	< 4.60
O=C(Nc1cc(-c2cccnc2)ccn1)c1csc(C[C@H]2CCCNC2)n1	< 4.60
O=C(Nc1ccc2c(c1)CNC2)c1cc(Cl)cc2[nH]c(-c3nc4c(s3)CCC4)nc12	6.37
O=C(Nc1ccc2c(c1)CN[C@H]2C[C@H](O)CO)c1cc(F)cc2[nH]ncc12	7.11 and 7.16
CC(C)n1cc(C(=O)Nc2cc(-c3cccnc3)ccn2)c2ccccc21	< 4.60
O=C(Nc1cc([C@H]2CCOC2)ccn1)c1cc(F)cc2[nH]ccc12	< 4.60
Cn1nc(C(=O)Nc2cc(-c3cccnc3)ccn2)cc1C1CC1	< 4.60
O=C(Nc1ccc2c(c1)CNC2)c1cc(Cl)cc2[nH]c(-c3ccc(F)cc3O)nc12	7.06 and 7.24

SMILES	pIC50
O=C(Nc1cc(-c2cccnc2)ccn1)c1cccc(C2CC2)c1	< 4.60
CCOC(=O)c1csc([C@H]2CCCN2C(=O)Nc2ccc3c(c2)CNC3)n1	< 4.60
CNC(=O)[C@H](Nc1ccc2c(c1)CNC2)c1cccc2[nH]c(C(F)(F)F)nc12	5.47
Cc1c(C(=O)Nc2cc(-c3cccnc3)ccn2)cc(C(C)C)n1C	< 4.60
O=C(NCC(F)F)[C@H](Nc1ccc2c(c1)CNC2)c1cc(F)cc2[nH]ccc12	6.70
O=C(Nc1ccc2c(c1)CNC2)c1cc(Cl)cc2[nH]c(-c3cn[nH]c3)cc12	< 4.60
Cc1c(C(=O)Nc2cc(-c3cccnc3)ccn2)cc(C2CCCCC2)n1C	< 4.90
c1cc([C@@H]2C[C@H]2c2ccc3c(c2)CNC3)c2cn[nH]c2c1	< 4.60
O=C(Nc1ccc2c(c1)CNC2)c1cc(Cl)cc2[nH]c(COc3ccccn3)nc12	6.68
O=C1OCc2ccc(NC(=O)c3cc(F)cc4[nH]ncc34)cc21	< 4.60
Cc1c(C(=O)Nc2cc(C3CCOCC3)ccc2F)cc(C2CC2)n1C	< 4.60
CN(C)c1nc(-c2cc(F)cc(C(=O)Nc3ccc4c(c3)CNC4)c2)cs1	6.84
O=C(Nc1cc(-c2cccnc2)ccn1)c1cnn2c1CCC2	< 4.60
O=C(NCCC1CC1)[C@H](Nc1ccc2c(c1)CNC2)c1cc(Cl)cc(C2CC2)c1	7.13 and 7.31
Cc1c(C(=O)NCc2ccnc(OC3CCOCC3)c2)cc(C2CC2)n1C	< 4.60
O=C1Cc2c(C(=O)Nc3ccc4c(c3)CNC4)ccnc2N1	4.64
Cc1c(C(=O)NCc2cccc(C3COC3)c2)cc(C2CC2)n1C	< 4.60
O=C(Nc1cc([C@H]2CCOC2)ccn1)c1cc(Cl)cc2c1CCC2	< 4.60
Cc1c(CN)c(C(=O)Nc2cc(-c3cccnc3)ccn2)nn1C	< 4.60
Cc1c(C(=O)Nc2cc(-c3cccnc3)ccn2)cc(-c2ccccc2)n1C	< 4.60
Cc1cc(C(=O)Nc2cc(-c3cccnc3)ccn2)c(C)n1C	< 4.60
O=C(Nc1cc(-c2cccnc2)ccn1)c1nnc(C2CC2)s1	< 4.60

SMILES	pIC50
O=C(Nc1ccc2c(c1)C(=O)OC2)c1ccc2c(c1)CNC2	< 4.60
O=C(Nc1cc(-c2cccnc2)ccn1)c1cn([C@H]2CCCNC2)nn1	< 4.60
O=C(Nc1ccc2c(c1)CS(=O)(=O)C2)c1cc(Cl)cc2[nH]ncc12	< 4.60
Cc1c(C(=O)Nc2cc(SC3COC3)ccn2)cc(C2CC2)n1C	< 4.60
O=C(Nc1ccc2c(c1)CNC2)c1cc(F)cc(-c2cccnc2)c1	7.05 and 7.06
O=C1Cc2c(cccc2C(=O)Nc2cc([C@H]3CCOC3)ccn2)N1	< 4.60
O=C(Nc1cc(-c2cccnc2)ccn1)c1csc(C2CC2)n1	< 4.60
O=C(Nc1ccc2c(c1)CNC2)c1cc(Cl)cc2[nH]c(-c3cnccc3O)nc12	6.40
O=C(Nc1cc(Br)c2c(c1)CNC2)c1cc(F)cc2[nH]ncc12	7.57 and 7.82
O=C(Nc1cc(-c2cccnc2)ccn1)c1ccc(C2CC2)cc1	< 4.60
O=C(Nc1ccc2c(c1)CNC2)c1cc(C(F)(F)F)c2cn[nH]c2n1	< 4.60
O=C(NCC(F)F)[C@H](Nc1ccc2c(c1)CNC2)c1cc(F)cc2[nH]ncc12	7.24 and 7.43
O=C1OCc2ccc(NC(=O)[C@H]3CCNC3)cc21	< 4.60
Cc1oc(C2CC2)nc1C(=O)Nc1cc(-c2cccnc2)ccn1	< 4.60
C=CC[C@H]1NCc2cc(N[C@H](C(=O)NC(C)C)c3cc(Cl)cc4[nH]ncc34)ccc21	6.00
Cc1c(C(=O)Nc2cccc(-c3cccnc3)c2)cc(C2CC2)n1C	< 4.60
CNC(=O)[C@H](Nc1cccc([C@H]2CCOC2)c1)c1cc(C2CC2)n(C)n1	< 4.60
CC(C)NC(=O)[C@H](Nc1ccc2c(c1)CNC2)c1cccc2cn[nH]c12	4.96
NCc1cc(Cl)cc(C(=O)Nc2cc([C@H]3CCOC3)ccn2)c1	< 4.60
CC1=C(c2cc(NC(=O)c3cc(Cl)cc4[nH]ncc34)cc3c2CNC3)CCC1=O	6.86
Cc1c(C(=O)Nc2cc(-c3cccnc3)ccn2)cc(C(C)(C)C)n1C	< 4.60
Cn1c(C2CC2)cc(C(=O)Nc2cc(-c3cccnc3)ccn2)c1C1CC1	< 4.60

SMILES	pIC50
Cc1c(C(=O)Nc2ccnc(O[C@H]3CCOC3)c2)cc(C2CC2)n1C	< 4.60
O=C(NCC1CCCCC1)[C@H]1CCCN1C(=O)Nc1ccc2c(c1)CNC2	< 4.60
O=C(Nc1cc(-c2cccnc2)ccn1)c1cc(C2CC2)no1	< 4.60
O=C(NCC(F)F)[C@H](Nc1ccc2c(c1)CNC2)c1cc(Cl)cc2[nH]ncc12	6.54
O=C(Nc1cc2c(c(C3=CC[C@H](O)CC3)c1)CNC2)c1cc(Cl)cc2[nH]ncc12	7.19 and 7.39
Cn1nc(C2CC2)cc1C(=O)Nc1cc(-c2cccnc2)ccn1	< 4.60
COCCNC(=O)[C@H](Nc1cccc([C@H]2CCOC2)c1)c1cc(F)cc2[nH]ccc12	< 4.60
CNC(=O)[C@H](Nc1ccc2c(c1)CNC2)c1cc(Cl)cc2c1OCC2	6.59
CC(C)NC(=O)[C@H](Nc1ccc2c(c1)CNC2)c1cc(F)cc2[nH]ccc12	5.99
C=CC[C@H]1NCc2cc(NC(=O)c3cc(F)cc4c3CC(=O)N4)ccc21	6.81
O=C(Nc1cc([C@H]2CCOC2)ccn1)c1cc(Br)cc2[nH]ccc12	< 4.60
O=C(Nc1cc(-c2cccnc2)ccn1)c1cnc(C2CC2)s1	< 4.60
NS(=O)(=O)c1cc(F)cc(C(=O)Nc2ccc3c(c2)CNC3)c1	5.83
O=C(Nc1ccc2c(c1)CNC2)c1ccc2ccncc2c1	4.86
O=C1Cc2cc(C(=O)Nc3ccc4c(c3)CNC4)c(Cl)cc2N1	< 4.60
O=C(Nc1ccc2c(c1)CNC2)c1cc(Cl)cc2nn(C3CCC3)cc12	6.75
O=C(Nc1ccc2c(c1)CNC2)c1cc(F)cc2c1CCNC2	6.94
O=C(Nc1ccc2c(c1)CNC2)c1cc(Br)cc2c1nc1n2CCCC1	6.26
O=C(Nc1ccc2c(c1)CNC2)c1n[nH]c2ccc(F)cc12	4.77
CSCCNC(=O)[C@H](Nc1ccc2c(c1)CNC2)c1cc(Cl)cc(C2CC2)c1	7.21 and 7.31
Cc1c(C(=O)Nc2cc(-c3cccnc3)ccn2)cc(CC(C)(C)C)n1C	< 4.60
O=C(Nc1ccc2c(c1)CNC2)c1cc(F)cc(-c2ccnn2CC2CC2)c1	5.97

SMILES	pIC50
O=C(Nc1ccc2c(c1)CNC2)c1cc(F)cc2nn(-c3ccccn3)nc12	6.95 and 6.89
O=C(Nc1cc(-c2cccnc2)ccn1)c1c[nH]c2ncccc12	< 4.60
Fc1cc(CNc2ccc3c(c2)CNC3)c2cn[nH]c2c1	5.45
COCCCNC(=O)[C@H](Nc1ccc2c(c1)CNC2)c1cc(Cl)cc(C2CC2)c1	7.06 and 7.15
O=C(Nc1cc(-c2cccnc2)ccn1)c1cc(C2CC2)[nH]n1	< 4.60
O=C(Nc1cc(-c2cccnc2)ccn1)c1cc2n(n1)CCS2(=O)=O	< 4.60
Cn1nc(C(=O)Nc2cc([C@H]3CCOC3)ccn2)cc1C1CC1	< 4.60
O=C1OCc2ccc(NC(=O)c3cc(F)cc4c3CCNC4)cc21	< 4.60
Cc1c(C(=O)Nc2cccc(-c3ccccc3)c2)cc(C2CC2)n1C	< 4.60
Cc1c(C(=O)Nc2cccc(C3CCOCC3)c2)cc(C2CC2)n1C	< 4.60
O=C(Nc1cc(-c2cccnc2)ccn1)c1coc(C2CC2)n1	< 4.60
N#Cc1cccc(-c2nc3c(C(=O)Nc4ccc5c(c4)CNC5)cc(Cl)cc3[nH]2)c1	7.00 and 7.74 and 7.32
Cc1c(C(=O)Nc2cc(-c3cccnc3)ccn2)cc(C2CCC2)n1C	< 4.60
O=C(Nc1cc(-c2cccnc2)ccn1)c1cc2n(n1)CC(F)(F)C2	< 4.60
O=C(Nc1ccc2c(c1)CNC2)c1cc(F)cc(-c2cnc(C3CC3)s2)c1	7.25 and 7.37
O=C(Nc1cc(-c2cccnc2)ccn1)c1cc2n(n1)CC1(CC1)C2	< 4.60
CC(C)(C)OC(=O)N1Cc2ccc(NC(=O)c3ccc4c(Br)csc4c3)cc2C1	< 4.60
Nc1nc2c(Br)cc(C(=O)Nc3ccc4c(c3)CNC4)cc2s1	5.29
Cn1nc(C(F)(F)F)cc1C(=O)Nc1cc(-c2cccnc2)ccn1	< 4.60
Cc1c(C(=O)Nc2cc(-c3ccccc3)ccn2)cc(C2CC2)n1C	< 4.60
Cc1cc(C(=O)Nc2cc(-c3cccnc3)ccn2)nn1CCN	< 4.60
